Values joined by “and” are separate entries in the source; they are usually repeats but may differ in a detail not shown here. Identical values can stand only once. “Also recorded” adds a separate entry of the source. Like-named read-outs stand apart in the source and are kept apart here. One block for each compound: values may come before it.
Assay: Portal plasma pharmacokinetics after oral administration in portal vein cannulated, freely moving rats
Assay type: in vivo, Wistar ST rats
Conditions: for AUC: 0→4 h after oral administration, mean ± SEM; for bioavailability: plasma, intact compound, oral versus intravenous administration, read-out: bioavailability for 4 hours
Protocol: SPF Wistar ST rats (6 weeks of age, male, 180 ± 20 g of body weight) were purchased from Japan SLC Inc. (Hamamatsu, Japan). The rats were housed in an air-conditioned room at 22 ± 2°C under cycles of 12 hours dark and 12 hours light and given free access to a commercial diet and water for a week. The rats were then fasted for over 16 hours before the experiments. The present study was approved by the Animal Care and Use Committee at Kagawa University, and the rat treatment conformed to the Rules of Animal Experiments at Kagawa University. After fasting, the rats were cannulated with a polyethylene tube (PE-50; 0.58 mm I.D., 0.965 mm O.D.) into the jugular vein, portal vein, or bile duct under anesthesia with isoflurane inhalation using a WP-SAA01 (LMS Co., Ltd., Tokyo, Japan). A small hole was made in the vein or duct using pointed scissors and cannulated with the polyethylene tube. After inserting the tube, it was fixed at the edge of the vein or duct. The jugular vein and portal vein cannulas penetrated under the skin and were then tied at the back of the rats, and the bile duct cannula was tied at the abdomen of the rats. Bile duct-cannulated rats were then restrained in a Bollman cage (Natsume Seisakusho Co., Ltd., Tokyo, Japan). Before further experiments, the rats were allowed to recover from anesthesia. 3,4-[…] (300 mg/kg body weight; 936.51 μmol/kg) dissolved in 50% polyethylene glycol aqueous solution was administered orally via a stomach tube to the portal vein cannulated rats. Blood samples (450 μL) were then collected using a heparinized syringe attached to the cannula before administration and 5, 15, 30, 60, 120, and 240 min after administration. Urine was also collected before administration and 0 to 2 h and 2 to 4 h after administration. For intravenous administration, 3,4-[…] (10 mg/kg; 31.22 μmol/kg) was injected into the jugular vein, and blood (450 μL) was collected using a heparinized syringe before administration and 5, 15, 30, 60, 120, and 240 min after administration via the jugular vein cannula. The blood (450 μL) collected was immediately cooled on ice and centrifuged at 15,000 rpm for 5 min at 4°C to obtain over 200 μL plasma. Urine was also collected before administration and 0 to 2 h and 2 to 4 h after administration. Bile was collected via the bile duct cannula before administration and 0 to 2 h and 2 to 4 h after intravenous administration. The collected plasma, urine, and bile were immediately stored in an ice box until further analyses. HT (oral administration: 100 mg/kg; 648.66 μmol/kg, intravenous administration: 10 mg/kg; 64.87 μmol/kg) and Ole (oral administration: 300 mg/kg; 555.02 μmol/kg, intravenous administration: 10 mg/kg; 18.50 μmol/kg) were investigated using the same method as described above. Metabolites were deconjugated by using β-glucuronidase (500 U) and sulfatase (50 U) in 50 μL 625 mM MOPS (pH 6.8), which was added to 200 μL of plasma, urine, or bile. The mixture was incubated for 45 min at 37°C and subjected to extraction using QuEChERS [33]. […] Shimadzu, Kyoto, Japan) equipped with a Shim-pack XR-ODS column (3.0 mm I.D. × 100 mm; Shimadzu, Kyoto, Japan) at 40°C with a mobile phase of 0.5% TFA-1% acetonitrile aqueous solution (A) and 0.5% TFA-75% acetonitrile aqueous solution (B). The elution conditions are described as follows: isocratic elution of 0% B was maintained for 4.0 min; linear gradient 0 to 4% B, 4.0-4.5 min; linear gradient 4.0-16.0% B, 4.5-16.0 min; linear gradient 16.0-100% B, 16.0-25.0 min; isocratic elution of 100% B, 25.0-26.0 min; and linear gradient 100 to 0% B, 26.0-26.1 min, with a flow rate of 0.5 mL/min. Injection volume was 50 μL. All eluted peaks were detected at 279 nm with a diode array detector (SPD-M20A; Shimadzu, Kyoto, Japan). The absorption of 3,4-[…], and Ole was evaluated by dose-normalized 4 h area under the curve (AUC0→4 h/Dose) and C max/Dose values (Table 2). […]

[1] = analyte Ole in portal plasma after oral administration
[2] = male, Wistar ST, rat, 300 mg/kg, analyte Ole in portal plasma after oral administration
[3] = analyte HT in portal plasma after oral administration
[4] = analyte HT in portal plasma after oral administration, listed as HT
[5] = male, Wistar ST, rat, portal vein plasma, 100 mg/kg, analyte HT in portal plasma after oral administration
[6] = analyte HVA in portal plasma after oral administration
[7] = analyte HVAOH in portal plasma after oral administration

- AUC/Dose (AUC0→4 h-i.g./Dosei.g.) [1]: 1.8 ± 0.4 μM·min·kg/μmol
- C max/Dose [1]: 0.021 ± 0.006 μM·kg/μmol
- AUC/Dose (AUC0→4 h-i.g./Dosei.g.) (analyte Ole in portal plasma after oral administration, listed as Ole): 1.8 μM·min·kg/μmol
- Cmax [2]: 11.9 ± 3.2 µM
- Tmax [2]: 5 min
- AUC (male, Wistar ST, rat, 300 mg/kg, analyte Ole in portal plasma, triplicate, read-out: AUC (converted)): 16.9 µM·h
- bioavailability (male, Wistar ST, rat): 0.5%
Structure (SMILES): C/C=C1/[C@H](O[C@@H]2O[C@H](CO)[C@@H](O)[C@H](O)[C@H]2O)OC=C(C(=O)OC)[C@H]1CC(=O)OCCc1ccc(O)c(O)c1 [Oleuropein, reference compound]

- AUC/Dose (AUC0→4 h-i.g./Dosei.g.) [3]: 51.1 ± 8.5 μM·min·kg/μmol
- C max/Dose [3]: 0.61 ± 0.089 μM·kg/μmol
- AUC/Dose (AUC0→4 h-i.g./Dosei.g.) [4]: 51.1 μM·min·kg/μmol
- C max/Dose [4]: 0.61 μM·kg/μmol
- AUC/Dose (AUC0→4 h-i.g./Dosei.g.) (analyte HT in portal plasma after oral administration, listed as hydroxytyrosol): 51.1 μM·min·kg/μmol
- bioavailability (male, Wistar ST, rat): 13.1%
- Cmax [5]: 395 ± 58 µM
- Tmax [5]: 15 min
- AUC (male, Wistar ST, rat, portal vein plasma, 100 mg/kg, analyte HT in portal plasma, triplicate, read-out: AUC (converted)): 553 µM·h
Structure (SMILES): OCCc1ccc(O)c(O)c1 [Hydroxytyrosol, 2-(3,4-dihydroxyphenyl) ethyl alcohol, reference compound]

- AUC (Total of detected analytes in portal plasma): 567.492 ± 92.322 µM·h
- C max/Dose [3]: 0.22 μM·kg/μmol
- Cmax [3]: 179 ± 45.3 µM
- T max [3]: 30 min
- AUC (analyte HT in portal plasma, triplicate): 432.25 ± 51.718 µM·h
- Cmax [6]: 21.5 ± 6.9 µM
- T max [6]: 60 min
- AUC (analyte HVA in portal plasma, triplicate): 69.667 ± 27.442 µM·h
- Cmax [7]: 22.2 ± 2 µM
- T max [7]: 30 min
- AUC (analyte HVAOH in portal plasma, triplicate): 65.575 ± 13.16 µM·h
- total absorption rate, times less than that of HT (total AUC0→4 h-i.g./Dosei.g. including metabolites): 2.2 times
- ratio of AUC/Dose of 3,4-DHPEA-EDA : HT : Ole (total including metabolites in portal plasma after oral administration, Ole = 1): 13.5
Structure (SMILES): CC=C(C=O)C(CC=O)CC(=O)OCCc1ccc(O)c(O)c1 (stereo not drawn) [3,4-DHPEA-EDA, 3,4-dihydroxyphenylethyl elenolate dialdehydic form]
- AUC/Dose (AUC0→4 h-i.g./Dosei.g.) (Total of detected analytes in portal plasma after oral administration): 36.4 μM·min·kg/μmol and 36.4 ± 5.9 μM·min·kg/μmol
- Detection of parent 3,4-DHPEA-EDA in portal plasma (after oral administration, 300 mg/kg, 936.51 μmol/kg, 300 mg/kg): not observed; also recorded: not detected; also recorded: could not detect
- AUC/Dose (AUC0→4 h-i.g./Dosei.g.) [3]: 27.7 μM·min·kg/μmol and 27.7 ± 3.3 μM·min·kg/μmol
- AUC/Dose (AUC0→4 h-i.g./Dosei.g.) [6]: 4.5 μM·min·kg/μmol and 4.5 ± 1.8 μM·min·kg/μmol
- C max/Dose [6]: 0.03 μM·kg/μmol and 0.03 ± 0.007 μM·kg/μmol
- AUC/Dose (AUC0→4 h-i.g./Dosei.g.) [7]: 4.2 μM·min·kg/μmol and 4.2 ± 0.8 μM·min·kg/μmol
- C max/Dose [7]: 0.03 μM·kg/μmol and 0.03 ± 0.002 μM·kg/μmol

— publication PMC4745926, “Absorption, Metabolism, and Excretion by Freely Moving Rats of 3,4-DHPEA-EDA and Related Polyphenols from Olive Fruits (Olea europaea)” (Journal of Nutrition and Metabolism, 2016)
